*1 amine or outer side, *2 acyl side, *3 side chain or, on linkers, in order; H or OH if unused. Where a SMILES comes first, the peptide text is derived from it. Bridges are numbered along the chain shown (N, C = ends). [ ]: non-standard residue; d: D form. TATA = O=C(CC[*:1])N1CN(C(=O)CC[*:2])CN(C(=O)CC[*:3])C1; Bip = N[C@@H](Cc1ccc(-c2ccccc2)cc1)C(=O)O; 1Nal = N[C@@H](Cc1cccc2ccccc12)C(=O)O
Target: TREM2 extracellular domain (ECD) (residues 19-131, C-terminally biotinylated, deglycosylated or glycosylated) (Homo sapiens, UniProt Q9NZC2)
Test: biochemical
[1] = Human BLI (Kd; nM) (deglycosylated), Table 4A, deglycosylated human TREM2 ECD, steady-state KD, 25° C.
[2] = Human BLI (Kd; nM) (deglycosylated), Table 4B, deglycosylated human TREM2 ECD, steady-state KD, 25° C.
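Also: Bio-layer interferometry in 50 mM HEPES pH 7.5 with 150 mM NaCl and 0.1% Tween, double-referenced with blank wells and unrelated-protein sensors, equilibrium response fitted versus concentration.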

Sequence of TREM2 extracellular domain (ECD) (residues 19-131, C-terminally biotinylated, deglycosylated or glycosylated) (Q9NZC2 19-131): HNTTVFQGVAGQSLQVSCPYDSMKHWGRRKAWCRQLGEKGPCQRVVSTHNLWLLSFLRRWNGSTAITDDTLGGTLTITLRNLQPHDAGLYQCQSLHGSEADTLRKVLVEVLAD

| SMILES | Kd [1] | Kd [2] | further results |
| --- | --- | --- | --- |
| CC(=O)N[C@H]1CSCCC(=O)N2CN3CN(C2)C(=O)CCSC[C@H](NC(=O)[C@H](Cc2ccc(O)cc2)NC(=O)[C@H](CCC(=O)O)NC(=O)[C@H](CO)NC1=O)C(=O)N[C@@H](Cc1ccccc1)C(=O)N[C@@H](Cc1cccc2ccccc12)C(=O)N1CCC[C@H]1C(=O)N[C@@H](Cc1ccccc1)C(=O)N[C@@H](Cc1ccc(O)cc1)C(=O)N[C@@H](Cc1c[nH]cn1)C(=O)N[C@H](C(N)=O)CSCCC3=O [BCY19669, Ac-(SEQ ID NO: 37)] (Ac-CSEYCF[1Nal]PFYHC-NH2; linker 1-5-12 via TATA) | 2000 nM |  |  |
| CC(C)C[C@@H]1NC(=O)[C@H](Cc2ccccc2)NC(=O)[C@H](Cc2ccccc2)NC(=O)[C@@H]2CCCN2C(=O)[C@H](Cc2c[nH]c3ccccc23)NC(=O)[C@H](Cc2ccccc2)NC(=O)[C@@H]2CSCCC(=O)N3CN(CN(C3)C(=O)CCSC[C@@H](C(=O)N[C@@H](C)C(N)=O)NC1=O)C(=O)CCSC[C@H](NC(=O)[C@H](C)N)C(=O)N[C@@H](CO)C(=O)N[C@@H](CCC(=O)O)C(=O)N[C@@H](Cc1ccc(O)cc1)C(=O)N2 [BCY19776, A-(SEQ ID NO: 15)-A] (H-ACSEYCFWPFFLCA-NH2; linker 2-6-13 via TATA) | 750 nM |  |  |
| CC(=O)N[C@H]1CSCCC(=O)N2CN3CN(C2)C(=O)CCSC[C@H](NC(=O)[C@H](Cc2ccc(O)cc2)NC(=O)[C@H](CCC(=O)O)NC(=O)[C@H](CO)NC1=O)C(=O)N[C@@H](Cc1ccccc1)C(=O)N[C@@H](Cc1c[nH]c2ccccc12)C(=O)N1CCC[C@H]1C(=O)N[C@@H](Cc1ccccc1)C(=O)N[C@@H](Cc1c[nH]c2ccccc12)C(=O)N[C@@H](Cc1c[nH]cn1)C(=O)N[C@H](C(N)=O)CSCCC3=O [BCY20077, Ac-(SEQ ID NO: 73)] (Ac-CSEYCFWPFWHC-NH2; linker 1-5-12 via TATA) |  |  | Kd (Human BLI (Kd; nM) glycosylated, Table 4B, glycosylated human TREM2 ECD): 750 nM |
| CC(=O)N[C@@H](C)C(=O)N[C@H]1CSCCC(=O)N2CN3CN(C2)C(=O)CCSC[C@H](NC(=O)[C@H](Cc2ccc(O)cc2)NC(=O)[C@H](CCC(=O)O)NC(=O)[C@H](CO)NC1=O)C(=O)N[C@@H](Cc1ccccc1)C(=O)N[C@@H](Cc1c[nH]c2ccccc12)C(=O)N1CCC[C@H]1C(=O)N[C@@H](Cc1ccccc1)C(=O)N[C@@H](Cc1ccc(O)cc1)C(=O)N[C@@H](Cc1c[nH]cn1)C(=O)N[C@H](C(=O)N[C@@H](C)C(N)=O)CSCCC3=O [BCY18218, Ac-A-(SEQ ID NO: 1)-A] (Ac-ACSEYCFWPFYHCA-NH2; linker 2-6-13 via TATA) | 2000 nM |  |  |
| C[C@H](N)C(=O)N[C@H]1CSCCC(=O)N2CN3CN(C2)C(=O)CCSC[C@H](NC(=O)[C@H](Cc2ccc(O)cc2)NC(=O)[C@H](C)NC(=O)[C@H](CO)NC1=O)C(=O)N[C@@H](Cc1ccccc1)C(=O)N[C@@H](Cc1c[nH]c2ccccc12)C(=O)N1CCC[C@H]1C(=O)N[C@@H](Cc1ccccc1)C(=O)N[C@@H](Cc1ccc(O)cc1)C(=O)N[C@@H](Cc1c[nH]cn1)C(=O)N[C@H](C(=O)N[C@@H](C)C(N)=O)CSCCC3=O [BCY18221, A-(SEQ ID NO: 25)-A] (H-ACSAYCFWPFYHCA-NH2; linker 2-6-13 via TATA) | 1800 nM |  |  |
| CC(=O)N[C@H]1CSCCC(=O)N2CN3CN(C2)C(=O)CCSC[C@H](NC(=O)[C@H](Cc2ccc(O)cc2)NC(=O)[C@H](CCC(=O)O)NC(=O)[C@H](CO)NC1=O)C(=O)N[C@@H](Cc1ccccc1)C(=O)N[C@@H](Cc1c[nH]c2ccccc12)C(=O)N1CCC[C@H]1C(=O)N[C@@H](Cc1ccccc1)C(=O)N[C@@H](CCC(N)=O)C(=O)N[C@@H](Cc1ccc(O)cc1)C(=O)N[C@H](C(N)=O)CSCCC3=O [BCY20220, Ac-(SEQ ID NO: 23)] (Ac-CSEYCFWPFQYC-NH2; linker 1-5-12 via TATA) |  | 1300 nM |  |
| CC(=O)N[C@H]1CSCCC(=O)N2CN3CN(C2)C(=O)CCSC[C@H](NC(=O)[C@H](Cc2ccc(O)cc2)NC(=O)[C@H](CCC(=O)O)NC(=O)[C@H](CO)NC1=O)C(=O)N[C@@H](Cc1ccccc1)C(=O)N[C@@H](Cc1c[nH]c2ccccc12)C(=O)N1CCC[C@H]1C(=O)N[C@@H](Cc1ccccc1)C(=O)N[C@@H](Cc1ccc(O)cc1)C(=O)N[C@@H](CC(N)=O)C(=O)N[C@H](C(N)=O)CSCCC3=O [BCY20083, Ac-(SEQ ID NO: 78)] (Ac-CSEYCFWPFYNC-NH2; linker 1-5-12 via TATA) |  | 1830 nM |  |
| C[C@H](N)C(=O)N[C@H]1CSCCC(=O)N2CN3CN(C2)C(=O)CCSC[C@H](NC(=O)[C@H](Cc2ccc(O)cc2)NC(=O)[C@H](CC(N)=O)NC(=O)[C@H]([C@@H](C)O)NC1=O)C(=O)N[C@@H](Cc1ccccc1)C(=O)N[C@@H](Cc1c[nH]c2ccccc12)C(=O)N1CCC[C@H]1C(=O)N[C@@H](Cc1ccccc1)C(=O)N[C@@H](CCC(N)=O)C(=O)N[C@@H](CO)C(=O)N[C@H](C(=O)N[C@@H](C)C(N)=O)CSCCC3=O [BCY19780, A-(SEQ ID NO: 19)-A] (H-ACTNYCFWPFQSCA-NH2; linker 2-6-13 via TATA) | 2400 nM |  |  |
| CC(=O)N[C@H]1CSCCC(=O)N2CN3CN(C2)C(=O)CCSC[C@H](NC(=O)[C@H](Cc2ccc(O)cc2)NC(=O)[C@H](CCC(=O)O)NC(=O)[C@H](CO)NC1=O)C(=O)N[C@@H](Cc1ccccc1)C(=O)N[C@@H](Cc1c[nH]c2ccccc12)C(=O)N1CCC[C@H]1C(=O)N[C@@H](Cc1ccc(-c2ccccc2)cc1)C(=O)N[C@@H](Cc1ccc(O)cc1)C(=O)N[C@@H](Cc1c[nH]cn1)C(=O)N[C@H](C(N)=O)CSCCC3=O [BCY20075, Ac-(SEQ ID NO: 71)] (Ac-CSEYCFWP[Bip]YHC-NH2; linker 1-5-12 via TATA) |  | 2400 nM |  |
| CC(=O)N[C@H]1CSCCC(=O)N2CN3CN(C2)C(=O)CCSC[C@H](NC(=O)[C@H](Cc2ccc(O)cc2)NC(=O)[C@H](CCC(=O)O)NC(=O)[C@H](CO)NC1=O)C(=O)N[C@@H](Cc1ccccc1)C(=O)N[C@@H](Cc1c[nH]c2ccccc12)C(=O)N1CCC[C@H]1C(=O)N[C@@H](Cc1ccccc1)C(=O)N[C@@H](Cc1ccc(O)cc1)C(=O)N[C@@H](Cc1ccccc1)C(=O)N[C@H](C(N)=O)CSCCC3=O [BCY20576, Ac-(SEQ ID NO: 102)] (Ac-CSEYCFWPFYFC-NH2; linker 1-5-12 via TATA) |  | 1350 nM |  |
| CC(=O)N[C@H]1CSCCC(=O)N2CN3CN(C2)C(=O)CCSC[C@H](NC(=O)[C@H](Cc2ccc(O)cc2)NC(=O)[C@H](CCC(=O)O)NC(=O)[C@@H](C)NC1=O)C(=O)N[C@@H](Cc1ccccc1)C(=O)N[C@@H](Cc1c[nH]c2ccccc12)C(=O)N1CCC[C@H]1C(=O)N[C@@H](Cc1ccccc1)C(=O)N[C@@H](Cc1ccc(O)cc1)C(=O)N[C@@H](Cc1c[nH]cn1)C(=O)N[C@H](C(N)=O)CSCCC3=O [BCY20086, Ac-(SEQ ID NO: 79)] |  | 17900 nM |  |
| C[C@H](N)C(=O)N[C@H]1CSCCC(=O)N2CN3CN(C2)C(=O)CCSC[C@H](NC(=O)[C@H](Cc2ccc(O)cc2)NC(=O)[C@H](CO)NC(=O)[C@H]([C@@H](C)O)NC1=O)C(=O)N[C@@H](Cc1ccccc1)C(=O)N[C@@H](Cc1c[nH]c2ccccc12)C(=O)N1CCC[C@H]1C(=O)N[C@@H](Cc1ccccc1)C(=O)N[C@@H](Cc1ccc(O)cc1)C(=O)N[C@@H](CCC(N)=O)C(=O)N[C@H](C(=O)N[C@@H](C)C(N)=O)CSCCC3=O [BCY19768, A-(SEQ ID NO: 10)-A] (H-ACTSYCFWPFYQCA-NH2; linker 2-6-13 via TATA; N-terminus and C-terminus assumed) | 900 nM |  |  |
| C[C@H](N)C(=O)N[C@H]1CSCCC(=O)N2CN3CN(C2)C(=O)CCSC[C@H](NC(=O)[C@H](Cc2ccc(O)cc2)NC(=O)[C@H](CC(N)=O)NC(=O)[C@H](CO)NC1=O)C(=O)N[C@@H](Cc1ccccc1)C(=O)N[C@@H](Cc1c[nH]c2ccccc12)C(=O)N1CCC[C@H]1C(=O)N[C@@H](Cc1ccccc1)C(=O)N[C@@H](Cc1c[nH]c2ccccc12)C(=O)N[C@@H](CCC(N)=O)C(=O)N[C@H](C(=O)N[C@@H](C)C(N)=O)CSCCC3=O [BCY19770, A-(SEQ ID NO: 12)-A] (H-ACSNYCFWPFWQCA-NH2; linker 2-6-13 via TATA; N-terminus and C-terminus assumed) | 1800 nM |  |  |
| C[C@H](N)C(=O)N[C@H]1CSCCC(=O)N2CN3CN(C2)C(=O)CCSC[C@H](NC(=O)[C@H](Cc2ccc(O)cc2)NC(=O)[C@H](CC(N)=O)NC(=O)[C@H]([C@@H](C)O)NC1=O)C(=O)N[C@@H](Cc1ccccc1)C(=O)N[C@@H](Cc1c[nH]c2ccccc12)C(=O)N1CCC[C@H]1C(=O)N[C@@H](Cc1ccccc1)C(=O)N[C@@H](Cc1c[nH]c2ccccc12)C(=O)N[C@@H](CO)C(=O)N[C@H](C(=O)N[C@@H](C)C(N)=O)CSCCC3=O [BCY19769, A-(SEQ ID NO: 11)-A] (H-ACTNYCFWPFWSCA-NH2; linker 2-6-13 via TATA) | 920 nM |  |  |
| CC(=O)N[C@H]1CSCCC(=O)N2CN3CN(C2)C(=O)CCSC[C@H](NC(=O)[C@H](Cc2ccc(O)cc2)NC(=O)[C@@H](C)NC(=O)[C@H](CO)NC1=O)C(=O)N[C@@H](Cc1ccccc1)C(=O)N[C@@H](Cc1c[nH]c2ccccc12)C(=O)N1CCC[C@H]1C(=O)N[C@@H](Cc1ccccc1)C(=O)N[C@@H](Cc1ccc(O)cc1)C(=O)N[C@@H](Cc1c[nH]cn1)C(=O)N[C@H](C(N)=O)CSCCC3=O [BCY20087, Ac-(SEQ ID NO: 80)] |  | 18000 nM |  |
| C[C@H](N)C(=O)N[C@H]1CSCCC(=O)N2CN3CN(C2)C(=O)CCSC[C@H](NC(=O)[C@H](Cc2ccc(O)cc2)NC(=O)[C@H](CC(N)=O)NC(=O)[C@H]([C@@H](C)O)NC1=O)C(=O)N[C@@H](Cc1ccccc1)C(=O)N[C@@H](Cc1c[nH]c2ccccc12)C(=O)N1CCC[C@H]1C(=O)N[C@@H](Cc1ccccc1)C(=O)N[C@@H](Cc1ccc(O)cc1)C(=O)N[C@@H](CO)C(=O)N[C@H](C(=O)N[C@@H](C)C(N)=O)CSCCC3=O [BCY19781, A-(SEQ ID NO: 20)-A] (H-ACTNYCFWPFYSCA-NH2; linker 2-6-13 via TATA) | 1400 nM |  |  |
| C[C@H](N)C(=O)N[C@H]1CSCCC(=O)N2CN3CN(C2)C(=O)CCSC[C@H](NC(=O)[C@H](Cc2ccc(O)cc2)NC(=O)[C@H](CCC(=O)O)NC(=O)[C@H](C)NC1=O)C(=O)N[C@@H](Cc1ccccc1)C(=O)N[C@@H](Cc1c[nH]c2ccccc12)C(=O)N1CCC[C@H]1C(=O)N[C@@H](Cc1ccccc1)C(=O)N[C@@H](Cc1ccc(O)cc1)C(=O)N[C@@H](Cc1c[nH]cn1)C(=O)N[C@H](C(=O)N[C@@H](C)C(N)=O)CSCCC3=O [BCY18220, A-(SEQ ID NO: 24)-A] (H-ACAEYCFWPFYHCA-NH2; linker 2-6-13 via TATA) | 2000 nM |  |  |

Source: patent US11904020B2, “Bicyclic peptide ligands specific for TREM2” (Bicycle Tx Limited, priority 2021, dated 2024)
